# Data reported in patent publication US20250113823A1, “Arthropod Control Compositions” (priority 2022, published 2025).
# Where two headings read alike, the source gives them in different places.
# Tests used:
# Anopheles gambiae = experiment: Warm Body assay, mosquito landings on treated warm body; assay type: in vivo; details: Anopheles gambiae, read-out: Percentage of repellence of mosquitoes Anopheles gambiae landing on the warm body; for pest or weed control at 4470 µg/mL: 4.47 mg/mL (Table 4); for pest or weed control at 10000 µg/mL: 10 mg/mL (Table 4)
# Procedure: Anopheles gambiae is also a model organism as it is anthropophilic and transmits malaria.
# (§1) The controlling effect according to the present invention was assessed using an adapted Warm Body assay as defined in Kröber T, Kessler S, Frei J, Bourquin M, Guerin P M. 2010. J Am Mosq Control Assoc. 26: 381-386. In this in-vitro assay the number of mosquito landing on a warm body, simulating an attractive host treated with the tested stimuli, was measured in order to assess the repellence effect.
# (§2) On the sandblasted glass Petri dish covering the warm body (28.3 cm^2), 100 μL of the compounds diluted at different concentrations in ethanol was applied. The number of mosquito landing on the warm body was counted for each stimulus and pure ethanol (solvent) as control.
# Aedes aegypti = experiment: as above; assay type: in vivo; details: for pest or weed control at 16 µg/mL / pest or weed control at 400 µg/mL / pest or weed control at 10000 µg/mL / pest or weed control at 1 % / pest or weed control at 0.04 % / pest or weed control at 0.0016 % / pest or weed control at 3.2 µg/mL / pest or weed control at 7.1 µg/mL / pest or weed control at 35.7 µg/mL / pest or weed control at 53 µg/mL / pest or weed control at 80 µg/mL / pest or weed control at 119 µg/mL / pest or weed control at 178 µg/mL / pest or weed control at 267 µg/mL / pest or weed control at 598 µg/mL / pest or weed control at 890 µg/mL / pest or weed control at 2000 µg/mL / pest or weed control at 4470 µg/mL: Aedes aegypti; for pest or weed control at 16 µg/mL / pest or weed control at 400 µg/mL / pest or weed control at 10000 µg/mL / pest or weed control at 3.2 µg/mL / pest or weed control at 7.1 µg/mL / pest or weed control at 35.7 µg/mL / pest or weed control at 53 µg/mL / pest or weed control at 80 µg/mL / pest or weed control at 119 µg/mL / pest or weed control at 178 µg/mL / pest or weed control at 267 µg/mL / pest or weed control at 598 µg/mL / pest or weed control at 890 µg/mL / pest or weed control at 2000 µg/mL / pest or weed control at 4470 µg/mL: read-out: Percentage of repellence of mosquitoes Aedes aegypti landing on the warm body; for pest or weed control at 1 % / pest or weed control at 0.04 %: read-out: repellence; for pest or weed control at 0.0016 %: read-out: reduce the number of mosquito landings; for pest or weed control at 3.2 µg/mL: 0.0032 mg/mL (Table 1); for pest or weed control at 7.1 µg/mL: 0.0071 mg/mL (Table 1); for pest or weed control at 35.7 µg/mL: 0.0357 mg/mL (Table 1); for pest or weed control at 53 µg/mL: 0.053 mg/mL (Table 1); for pest or weed control at 80 µg/mL: 0.08 mg/mL (Table 1); for pest or weed control at 119 µg/mL: 0.119 mg/mL (Table 1); for pest or weed control at 178 µg/mL: 0.178 mg/mL (Table 1); for pest or weed control at 267 µg/mL: 0.267 mg/mL (Table 1); for pest or weed control at 598 µg/mL: 0.598 mg/mL (Table 1); for pest or weed control at 890 µg/mL: 0.89 mg/mL (Table 1); for pest or weed control at 2000 µg/mL: 2 mg/mL (Table 1); for pest or weed control at 4470 µg/mL: 4.47 mg/mL (Table 1)
# Procedure: The arthropod controlling effect according to the present invention is determined on mosquitoes using an adapted Warm Body assay as defined in Kröber T, Kessler S, Frei J, Bourquin M, Guerin PM. An in vitro assay for testing mosquito controlling compounds employing a warm body and carbon dioxide as a behavioral activator. J Am Mosq Control Assoc. 2010; 26: 381-386. Further information is provided in the accompanying examples
# The controlling effect, repellence & spatial repellence, according to the present invention is determined by testing the Warm Body assay against the yellow fever mosquito, Aedes aegypti Rockefeller strain. […] Observations of controlling efficacy were made on host-seeking females of uniform age, 5 to 10 days old selected as mentioned in the publication mentioned hereinabove. Tested hungry females had access to 10% sugar solution but were not blood-fed. Further information is provided in the accompanying examples.
# The published protocol has been adapted in not manually counting the landing mosquitoes but automatically using an automatic counting software, the switch from Anopheles gambiae to A. aegypti led to a decrease of mosquitoes' number placed in the tested cage due to the size difference (i.e. 30 mosquitoes instead of 50) and to an increase of lighting as A. aegypti is a diurnal mosquitoes (i.e. 150 lux instead of 4 lux). Further information is provided in the accompanying examples. […]
# as §1
# The published protocol has been adapted as the switch from Anopheles gambiae to Aedes aegypti led to a decrease of mosquitoes placed in the tested cage due to the size difference (i.e. 30 mosquitoes instead of 50) and to an increase of lighting since A. aegypti is a diurnal mosquitoes (i.e. 150 lux instead of 4 lux).
# as §2
# [1] = highest tested concentration, 1% (Table 3)
# [2] = intermediate concentration of 0.04% (Table 3)
smiles,measurement,setting,value
"CCCc1ccc2c(c1)OC(C(C)=O)O2 (stereo not shown) [compound 908, 1-(5-propyl-1,3-benzodioxol-2-yl)ethanone]",pest or weed control at 178 µg/mL,Anopheles gambiae; 0.178 mg/mL (Table 4),61%
same,pest or weed control at 267 µg/mL,Anopheles gambiae; 0.267 mg/mL (Table 4),95%
same,pest or weed control at 400 µg/mL,Anopheles gambiae; 0.4 mg/mL (Table 4),51%
same,pest or weed control at 4470 µg/mL,Anopheles gambiae,74%
same,pest or weed control at 10000 µg/mL,Anopheles gambiae,84%
same,pest or weed control at 16 µg/mL,Aedes aegypti; 0.016 mg/mL (Table 3),10%
same,pest or weed control at 400 µg/mL,Aedes aegypti; 0.4 mg/mL (Table 3),37%
same,pest or weed control at 10000 µg/mL,Aedes aegypti; 10 mg/mL (Table 3),85%
"CCOc1cc(COC)ccc1O [compound 1271, 2-ethoxy-4-(methoxymethyl)phenol]",pest or weed control at 4470 µg/mL,Anopheles gambiae,95%
same,pest or weed control at 10000 µg/mL,Anopheles gambiae,92%
same,pest or weed control at 16 µg/mL,Aedes aegypti; 0.016 mg/mL (Table 3),29%
same,pest or weed control at 400 µg/mL,Aedes aegypti; 0.4 mg/mL (Table 3),84%
same,pest or weed control at 10000 µg/mL,Aedes aegypti; 10 mg/mL (Table 3),96%
same,pest or weed control at 1 %,Aedes aegypti; [1],> 90%
same,pest or weed control at 0.04 %,Aedes aegypti; [2],> 75%
"COc1ccc(C#N)c(OC)c1OC [compound 2266, 2,3,4-trimethoxybenzonitrile]",pest or weed control at 16 µg/mL,Aedes aegypti; 0.016 mg/mL (Table 3),48%
same,pest or weed control at 400 µg/mL,Aedes aegypti; 0.4 mg/mL (Table 3),83%
same,pest or weed control at 10000 µg/mL,Aedes aegypti; 10 mg/mL (Table 3),89%
same,pest or weed control at 0.04 %,Aedes aegypti; [2],> 75%
"COc1cc(C=O)cc(OC)c1OC [compound 2268, 3,4,5-trimethoxybenzaldehyde]",pest or weed control at 16 µg/mL,Aedes aegypti,59%
same,pest or weed control at 400 µg/mL,Aedes aegypti,88%
same,pest or weed control at 10000 µg/mL,Aedes aegypti,95%
same,pest or weed control at 0.0016 %,Aedes aegypti,> 50%
same,pest or weed control at 0.04 %,Aedes aegypti,> 75%
same,pest or weed control at 1 %,Aedes aegypti,> 90%
"COc1cc(C=CCOC(C)=O)cc(OC)c1OC [compound 2247, 3-(3,4,5-trimethoxyphenyl)-2-acetate]",Percentage of repellence of mosquitoes Aedes aegypti landing on the warm body,Aedes aegypti; 0.016 mg/mL (Table 3),39%
same,Percentage of repellence of mosquitoes Aedes aegypti landing on the warm body,Aedes aegypti; 0.4 mg/mL (Table 3),44%
same,Percentage of repellence of mosquitoes Aedes aegypti landing on the warm body,Aedes aegypti; 10 mg/mL (Table 3),98%
"CC=Cc1cc(OC)c(O)c(OC)c1 [compound 1124, 2,6-dimethoxy-4-[prop-1-enyl]phenol]",pest or weed control at 3.2 µg/mL,Aedes aegypti,26%
same,pest or weed control at 7.1 µg/mL,Aedes aegypti,40%
same,pest or weed control at 16 µg/mL,Aedes aegypti; 0.016 mg/mL (Table 1),62%
same,pest or weed control at 35.7 µg/mL,Aedes aegypti,0%
same,pest or weed control at 53 µg/mL,Aedes aegypti,48%
same,pest or weed control at 80 µg/mL,Aedes aegypti,84%
same,pest or weed control at 119 µg/mL,Aedes aegypti,35%
same,pest or weed control at 178 µg/mL,Aedes aegypti,66%
same,pest or weed control at 267 µg/mL,Aedes aegypti,59%
same,pest or weed control at 400 µg/mL,Aedes aegypti; 0.4 mg/mL (Table 1),78%
same,pest or weed control at 598 µg/mL,Aedes aegypti,69%
same,pest or weed control at 890 µg/mL,Aedes aegypti,78%
same,pest or weed control at 2000 µg/mL,Aedes aegypti,95%
same,pest or weed control at 4470 µg/mL,Aedes aegypti,85%
same,pest or weed control at 10000 µg/mL,Aedes aegypti; 10 mg/mL (Table 1),98%
"COc1cc(C)cc(OC)c1OC [compound 2250, 1,2,3-trimethoxy-5-methybenzene]",Percentage of repellence of mosquitoes Aedes aegypti landing on the warm body,Aedes aegypti; 0.016 mg/mL (Table 3),21%
same,Percentage of repellence of mosquitoes Aedes aegypti landing on the warm body,Aedes aegypti; 0.4 mg/mL (Table 3),57%
same,Percentage of repellence of mosquitoes Aedes aegypti landing on the warm body,Aedes aegypti; 10 mg/mL (Table 3),100%
same,mosquito landing within the two minutes of experiments,Aedes aegypti; [1],protect the attractive stimulus for any mosquito landing
"CCCc1cc(OC)c(O)c(OC)c1 [compound 1502, 2,6-dimethoxy-4-propylphenol]",pest or weed control at 3.2 µg/mL,Aedes aegypti,0%
same,pest or weed control at 7.1 µg/mL,Aedes aegypti,0%
same,pest or weed control at 16 µg/mL,Aedes aegypti; 0.016 mg/mL (Table 1),32%
same,pest or weed control at 35.7 µg/mL,Aedes aegypti,0%
same,pest or weed control at 53 µg/mL,Aedes aegypti,61%
same,pest or weed control at 80 µg/mL,Aedes aegypti,0%
same,pest or weed control at 119 µg/mL,Aedes aegypti,14%
same,pest or weed control at 178 µg/mL,Aedes aegypti,94%
same,pest or weed control at 267 µg/mL,Aedes aegypti,94%
same,pest or weed control at 400 µg/mL,Aedes aegypti; 0.4 mg/mL (Table 1),88%
same,pest or weed control at 598 µg/mL,Aedes aegypti,94%
same,pest or weed control at 890 µg/mL,Aedes aegypti,99%
same,pest or weed control at 2000 µg/mL,Aedes aegypti,96%
same,pest or weed control at 4470 µg/mL,Aedes aegypti,100%
same,pest or weed control at 10000 µg/mL,Aedes aegypti; 10 mg/mL (Table 1),96%
"CC=Cc1cc(OC)c(OC)c(OC)c1 [compound 1123, 1,2,3-trimethoxy-5-[1-propen-1-yl]benzene]",pest or weed control at 3.2 µg/mL,Aedes aegypti,28%
same,pest or weed control at 7.1 µg/mL,Aedes aegypti,10%
same,pest or weed control at 16 µg/mL,Aedes aegypti; 0.016 mg/mL (Table 1),63%
same,pest or weed control at 35.7 µg/mL,Aedes aegypti,45%
same,pest or weed control at 53 µg/mL,Aedes aegypti,81%
same,pest or weed control at 80 µg/mL,Aedes aegypti,67%
same,pest or weed control at 119 µg/mL,Aedes aegypti,71%
same,pest or weed control at 178 µg/mL,Aedes aegypti,83%
same,pest or weed control at 267 µg/mL,Aedes aegypti,90%
same,pest or weed control at 400 µg/mL,Aedes aegypti; 0.4 mg/mL (Table 1),91%
same,pest or weed control at 598 µg/mL,Aedes aegypti,95%
same,pest or weed control at 890 µg/mL,Aedes aegypti,90%
same,pest or weed control at 2000 µg/mL,Aedes aegypti,98%
same,pest or weed control at 4470 µg/mL,Aedes aegypti,100%
same,pest or weed control at 10000 µg/mL,Aedes aegypti; 10 mg/mL (Table 1),98%
"COc1cccc(OC)c1O [compound 2244, 2,6-dimethoxyphenol]",pest or weed control at 16 µg/mL,Aedes aegypti; 0.016 mg/mL (Table 3),44%
same,pest or weed control at 400 µg/mL,Aedes aegypti; 0.4 mg/mL (Table 3),59%
same,pest or weed control at 10000 µg/mL,Aedes aegypti; 10 mg/mL (Table 3),85%
"COc1cccc(CO)c1OC [compound 2263, (2,3-dimethoxyphenyl)methanol]",pest or weed control at 16 µg/mL,Aedes aegypti; 0.016 mg/mL (Table 3),52%
same,pest or weed control at 400 µg/mL,Aedes aegypti; 0.4 mg/mL (Table 3),96%
same,pest or weed control at 10000 µg/mL,Aedes aegypti; 10 mg/mL (Table 3),97%
same,pest or weed control at 1 %,Aedes aegypti; [1],> 90%
same,pest or weed control at 0.04 %,Aedes aegypti; [2],> 75%
same,pest or weed control at 0.0016 %,Aedes aegypti; lowest concentration of 0.0016% (Table 3),> 50%
"COc1cc(C2CCCO2)ccc1O (stereo not shown) [compound 1481, 2-methoxy-4-(oxolan-2-yl)phenol]",pest or weed control at 16 µg/mL,Aedes aegypti; 0.016 mg/mL (Table 3),21%
same,pest or weed control at 400 µg/mL,Aedes aegypti; 0.4 mg/mL (Table 3),89%
same,pest or weed control at 10000 µg/mL,Aedes aegypti; 10 mg/mL (Table 3),97%
same,pest or weed control at 1 %,Aedes aegypti; [1],> 90%
same,pest or weed control at 0.04 %,Aedes aegypti; [2],> 75%
"COc1cc(C=CC=O)ccc1O [compound 1527, 3-(4-hydroxy-3-methoxyphenyl)pro-2-enal]",Percentage of repellence of mosquitoes Aedes aegypti landing on the warm body,Aedes aegypti; 0.016 mg/mL (Table 3),69%
same,Percentage of repellence of mosquitoes Aedes aegypti landing on the warm body,Aedes aegypti; 0.4 mg/mL (Table 3),76%
same,Percentage of repellence of mosquitoes Aedes aegypti landing on the warm body,Aedes aegypti; 10 mg/mL (Table 3),71%
